What follows are compounds tested against T1, human 11βHSD1 enzyme (Homo sapiens, UniProt P28845) (assay: 11βHSD1 cortisone to cortisol conversion, competitive HTRF assay). Conditions: human 11-βHSD; test concentration of 30 μM of compound.
T1 construct: baculovirus expressed N terminal 6-His tagged full length human 11βHSD1 enzyme; 6-His (N); made in house
Type: biochemical
Procedure, shortened: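 Enzyme was baculovirus-expressed, N-terminal 6-His-tagged full-length human 11βHSD1, purified on a copper chelate column. Compounds were added in buffer containing 1% DMSO at 10-fold final concentration.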

T1 sequence (P28845 whole entry): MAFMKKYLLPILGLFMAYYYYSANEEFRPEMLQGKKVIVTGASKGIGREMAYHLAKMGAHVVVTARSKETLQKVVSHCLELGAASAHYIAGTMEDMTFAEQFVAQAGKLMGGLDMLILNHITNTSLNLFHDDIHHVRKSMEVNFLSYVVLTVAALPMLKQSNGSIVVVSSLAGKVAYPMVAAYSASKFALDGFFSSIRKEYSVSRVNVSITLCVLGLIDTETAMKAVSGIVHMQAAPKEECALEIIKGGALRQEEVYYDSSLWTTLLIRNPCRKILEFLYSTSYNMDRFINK

| SMILES | inhibition at 30 µM [%] |
| --- | --- |
| CC(C)Nc1ncc(C(=O)N[C@H]2C3CC4CC2C[C@@](O)(C4)C3)c(C2CCCO2)n1 (stereo partly drawn) [Example 159, N-[(2r,5s)-5-hydroxyadamantan-2-yl]-4-(oxolan-2-yl)-2-(propan-2-ylamino)pyrimidine-5-carboxamide] | 98.2 |
| O=C(N[C@H]1C2CC3CC1C[C@@](O)(C3)C2)c1cnc(NC2CC2)nc1C1CCCO1 (stereo partly drawn) [Example 160, 2-(cyclopropylamino)-N-[(2r,5s)-5-hydroxyadamantan-2-yl]-4-(oxolan-2-yl)pyrimidine-5-carboxamide] | 104 |
| O=C(N[C@H]1C2CC3CC1C[C@@](O)(C3)C2)c1cnc(NC2CCC2)nc1C1CCCO1 (stereo partly drawn) [Example 162, 2-(cyclobutylamino)-N-[(2r,5s)-5-hydroxyadamantan-2-yl]-4-(oxolan-2-yl)pyrimidine-5-carboxamide] | 97.7 |
| O=C(N[C@H]1C2CC3CC1C[C@@](O)(C3)C2)c1cnc(NC2COC2)nc1C1CCCO1 (stereo partly drawn) [Example 164, N-[(2r,5s)-5-hydroxyadamantan-2-yl]-2-(oxetan-3-ylamino)-4-(oxolan-2-yl)pyrimidine-5-carboxamide] | 98.9 |
| O=C(N[C@H]1C2CC3CC1C[C@@](O)(C3)C2)c1cnc(NC2CC2)nc1[C@H]1CCCO1 [Example 170, 2-(cyclopropylamino)-N-[(2r,5s)-5-hydroxyadamantan-2-yl]-4-[(2R)-oxolan-2-yl]pyrimidine-5-carboxamide] | 94.4 |
| CC(C)Nc1ncc(C(=O)N[C@H]2C3CC4CC2C[C@@](O)(C4)C3)c([C@H]2CCCO2)n1 [Example 171, N-[(2r,5s)-5-hydroxyadamantan-2-yl]-4-[(2R)-oxolan-2-yl]-2-(propan-2-ylamino)pyrimidine-5-carboxamide] | 103 |
| C[C@@H]1CN(c2ncc(C(=O)N[C@H]3C4CC5CC3C[C@@](O)(C5)C4)c([C@H]3CCCO3)n2)C[C@H](C)N1 [Example 172, 2-[(3S,5R)-3,5-dimethylpiperazin-1-yl]-N-[(2r,5s)-5-hydroxyadamantan-2-yl]-4-[(2R)-oxolan-2-yl]pyrimidine-5-carboxamide] | 97.2 |
| O=C(N[C@H]1C2CC3CC1C[C@@](O)(C3)C2)c1cnc(NC2COC2)nc1[C@H]1CCCO1 [Example 173, N-[(2r,5s)-5-hydroxyadamantan-2-yl]-2-(oxetan-3-ylamino)-4-[(2R)-oxolan-2-yl]pyrimidine-5-carboxamide] | 101 |
| O=C(N[C@H]1C2CC3CC1C[C@@](O)(C3)C2)c1cnc(NC2CCOCC2)nc1[C@H]1CCCO1 [Example 174, N-[(2r,5s)-5-hydroxyadamantan-2-yl]-2-(oxan-4-ylamino)-4-[(2R)-oxolan-2-yl]pyrimidine-5-carboxamide] | 95 |
| O=C(N[C@H]1C2CC3CC1C[C@@](O)(C3)C2)c1cnc(NC2CCC2)nc1[C@H]1CCCO1 [Example 175, 2-(cyclobutaylamino)-N-[(2r,5s)-5-hydroxyadamantan-2-yl]-4-[(2R)-oxolan-2-yl]pyrimidine-5-carboxamide] | 103 |
| O=C(N[C@H]1C2CC3CC1C[C@@](O)(C3)C2)c1cnc(NC2CC2)nc1[C@@H]1CCCO1 [Example 180, 2-(cyclopropylamino)-N-[(2r,5s)-5-hydroxyadamantan-2-yl]-4-[(2S)-oxolan-2-yl]pyrimidine-5-carboxamide] | 98.8 |
| Cc1ncc(C(=O)N[C@H]2C3CC4CC2C[C@@](O)(C4)C3)c(-c2ccccc2Cl)n1 [Example 189, 4-(2-Chlorophenyl)-N-[(2r,5s)-5-hydroxyadamantan-2-yl]-2-methylpyrimidine-5-carboxamide] | 95.5 |
| CSc1ncc(C(=O)N[C@H]2C3CC4CC2C[C@@](O)(C4)C3)c(C2CCCCC2)n1 [Example 195, 4-Cyclohexyl-N-[(2r,5 s)-5-hydroxyadamantan-2-yl]-2-(methylthio)pyrimidine-5-carboxamide] | 103 |
| O=C(N[C@H]1C2CC3CC1C[C@@](O)(C3)C2)c1cnc(N2CCSCC2)nc1C1CCCCC1 [Example 196, 4-Cyclohexyl-N-[(2r,5 s)-5-hydroxyadamantan-2-yl]-2-thiomorpholin-4-ylpyrimidine-5-carboxamide] | 99.8 |
| O=C(N[C@H]1C2CC3CC1C[C@@](O)(C3)C2)c1cnc(N2CC[S+]([O-])CC2)nc1C1CCCCC1 [Example 197, 4-Cyclohexyl-N-[(2r,5 s)-5-hydroxyadamantan-2-yl]-2-(1-oxidothiomorpholin-4-yl)pyrimidine-5-carboxamide] | 97.8 |
| O=C(N[C@H]1C2CC3CC1C[C@@](O)(C3)C2)c1cnc(N2CCS(=O)(=O)CC2)nc1C1CCCCC1 [Example 198, 4-Cyclohexyl-2-(1,1-dioxidothiomorpholin-4-yl)-N-[(2r,5s)-5-hydroxyadamantan-2-yl]pyrimidine-5-carboxamide] | 94 |
| O=C(N[C@H]1C2CC3CC1C[C@@](O)(C3)C2)c1cnc(N2CC(F)(F)C2)nc1N1CC(F)(F)C1 [Example 200, 2,4-bis(3,3-difluoroazetidin-1-yl)-N-[(2r,5s)-5-hydroxyadamantan-2-yl]pyrimidine-5-carboxamide] | 52.8 |
| O=C(N[C@H]1C2CC3CC1C[C@@](O)(C3)C2)c1cnc(N2CCC2)nc1N1CCC1 [Example 201, 2,4-bis(azetidin-1-yl)-N-[(2r,5s)-5-hydroxyadamantan-2-yl]pyrimidine-5-carboxamide] | 95 |

Continued, values first:

| inhibition at 30 µM [%] | SMILES |
| --- | --- |
| 96.5 | Cc1ncc(C(=O)N[C@H]2C3CC4CC2C[C@@](O)(C4)C3)c(C2CCCO2)n1 (stereo partly drawn) [Example 158, N-[(2r,5s)-5-hydroxyadamantan-2-yl]-2-methyl-4-(oxolan-2-yl)pyrimidine-5-carboxamide] |
| 105 | CNc1ncc(C(=O)N[C@H]2C3CC4CC2C[C@@](O)(C4)C3)c(C2CCCO2)n1 (stereo partly drawn) [Example 161, N-[(2r,5s)-5-hydroxyadamantan-2-yl]-2-methylamino-4-(oxolan-2-yl)pyrimidine-5-carboxamide] |
| 105 | CC(C)Oc1ncc(C(=O)N[C@H]2C3CC4CC2C[C@@](O)(C4)C3)c(C2CCCO2)n1 (stereo partly drawn) [Example 165] |
| 102 | CSc1ncc(C(=O)N[C@H]2C3CC4CC2C[C@@](O)(C4)C3)c([C@H]2CCCO2)n1 [Example 166, N-[(2r,5s)-5-hydroxyadamantan-2-yl]-2-methylsulfanyl-4-[(2R)-oxolan-2-yl]pyrimidine-5-carboxamide] |
| 101 | CNc1ncc(C(=O)N[C@H]2C3CC4CC2C[C@@](O)(C4)C3)c([C@H]2CCCO2)n1 [Example 167, N-[(2r,5s)-5-hydroxyadamantan-2-yl]-2-methylamino-4-[(2R)-oxolan-2-yl]pyrimidine-5-carboxamide] |
| 97.9 | CC(C)Oc1ncc(C(=O)N[C@H]2C3CC4CC2C[C@@](O)(C4)C3)c([C@H]2CCCO2)n1 [Example 176] |
| 95.8 | CSc1ncc(C(=O)N[C@H]2C3CC4CC2C[C@@](O)(C4)C3)c([C@@H]2CCCO2)n1 [Example 177, N-[(2r,5s)-5-hydroxyadamantan-2-yl]-2-methylsulfanyl-4-[(2S)-oxolan-2-yl]pyrimidine-5-carboxamide] |
| 95.3 | CNc1ncc(C(=O)N[C@H]2C3CC4CC2C[C@@](O)(C4)C3)c([C@@H]2CCCO2)n1 [Example 178, N-[(2r,5s)-5-hydroxyadamantan-2-yl]-2-methylamino-4-[(2S)-oxolan-2-yl]pyrimidine-5-carboxamide] |
| 95.1 | CC(C)Nc1ncc(C(=O)N[C@H]2C3CC4CC2C[C@@](O)(C4)C3)c([C@@H]2CCCO2)n1 [Example 179, N-[(2r,5s)-5-hydroxyadamantan-2-yl]-4-[(2S)-oxolan-2-yl]-2-(propan-2-ylamino)pyrimidine-5-carboxamide] |
| 95 | CC(C)Oc1ncc(C(=O)N[C@H]2C3CC4CC2C[C@@](O)(C4)C3)c([C@@H]2CCCO2)n1 [Example 181] |
| 108 | Cc1ncc(C(=O)N[C@H]2C3CC4CC2C[C@@](O)(C4)C3)c(C2CCC(F)(F)C2)n1 (stereo partly drawn) [Example 184, 4-(3,3-Difluorocyclopentyl)-N-[(2r,5s)-5-hydroxyadamantan-2-yl]-2-methylpyrimidine-5-carboxamide] |
| 99 | COc1ncc(C(=O)NC2C3CC4CC2CC(O)(C4)C3)c(C2(C)CC2)n1 (stereo not drawn) [Example 187, N-[(2r,5 s)-5-hydroxyadamantan-2-yl]-2-methoxy-4-(1-methylcyclopropyl)pyrimidine-5-carboxamide] |
| 102 | Cc1ncc(C(=O)N[C@H]2C3CC4CC2C[C@@](O)(C4)C3)c(CC(C)(C)C)n1 [Example 193, 4-(2,2-Dimethylpropyl)-N-[(2r,5s)-5-hydroxyadamantan-2-yl]-2-methylpyrimidine-5-carboxamide] |
| 96.8 | CN(C)c1ncc(C(=O)N[C@H]2C3CC4CC2C[C@@](O)(C4)C3)c(N(C)C)n1 [Example 199, 2,4-bis(dimethylamino)-N-[(2r,5s)-5-hydroxyadamantan-2-yl]pyrimidine-5-carboxamide] |
| 102 | Cc1ncc(C(=O)N[C@H]2C3CC4CC2C[C@@](O)(C4)C3)c(OC(C)C)n1 [Example 202, N-[(2r,5s)-5-hydroxyadamantan-2-yl]-2-methyl-4-propan-2-yloxypyrimidine-5-carboxamide] |
| 98.6 | Cc1ncc(C(=O)N[C@H]2C3CC4CC2C[C@@](O)(C4)C3)c(OC2CCC2)n1 [Example 203, 4-Cyclobutyloxy-N-[(2r,5 s)-5-hydroxyadamantan-2-yl]-2-methylpyrimidine-5-carboxamide] |
| 106 | Cc1ncc(C(=O)N[C@H]2C3CC4CC2C[C@@](O)(C4)C3)c(OC2CCCC2)n1 [Example 204, 4-Cyclopentyloxy-N-[(2r,5s)-5-hydroxyadamantan-2-yl]-2-methylpyrimidine-5-carboxamide] |
| 102 | COc1nc(N2C[C@@H](C)O[C@@H](C)C2)ncc1C(=O)N[C@H]1C2CC3CC1C[C@@](O)(C3)C2 [Example 205, 2-[(2R,6S)-2,6-Dimethylmorpholin-4-yl]-N-[(2r,5 s)-5-hydroxytricyclo[3.3.1.13.7]dec-2-yl]-4-methoxypyrimidine-5-carboxamide] |

Reference: patent publication US20090264401A1, “SUBSTITUTED PYRIMIDIN-5-CARBOXAMIDES 281” (AstraZeneca AB, priority 2008, published 2009)
